{"source": "paper PMC6997118", "about": "“Long-acting CCK analogue NN9056 lowers food intake and body weight in obese Göttingen Minipigs” (International Journal of Obesity (2005), 2019)", "key": {"[1]": {"conditions": "obese humans, after 24 weeks of treatment; cited from earlier work"}, "[2]": {"set-up": "method as in PMID 7084608", "conditions": "cited from earlier work"}, "[3]": {"molecular_target": "T1, porcine CCK-1 receptor (Sus scrofa, UniProt I3LFK5)", "T1 construct": "expressed in transfected cells; host or cells: COS-7", "T1 sequence (I3LFK5 1-428)": "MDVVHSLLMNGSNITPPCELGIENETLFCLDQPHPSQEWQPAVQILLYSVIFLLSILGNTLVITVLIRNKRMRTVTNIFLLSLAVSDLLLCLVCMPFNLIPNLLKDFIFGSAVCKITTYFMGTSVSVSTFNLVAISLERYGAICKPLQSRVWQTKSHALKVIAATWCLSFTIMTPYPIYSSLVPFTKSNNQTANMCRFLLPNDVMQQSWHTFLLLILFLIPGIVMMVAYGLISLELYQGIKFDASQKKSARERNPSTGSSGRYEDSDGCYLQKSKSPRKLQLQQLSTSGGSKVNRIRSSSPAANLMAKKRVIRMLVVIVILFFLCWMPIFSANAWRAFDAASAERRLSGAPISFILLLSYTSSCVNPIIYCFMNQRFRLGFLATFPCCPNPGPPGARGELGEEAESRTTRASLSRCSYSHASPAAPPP", "test": "biochemical", "conditions": "pig CCK-1 receptor over-expressed in COS-7 cells, SPA, n = 3; read-out: Binding Mean IC50"}, "[4]": {"molecular_target": "T1, porcine CCK-1 receptor", "test": "cell-based", "conditions": "pig CCK-1 receptor in COS-7 cells, IP-One, n = 3; read-out: Activation Mean EC50"}, "[5]": {"molecular_target": "T2, porcine CCK-2 receptor (Sus scrofa, UniProt A0A287A2K5)", "T2 construct": "expressed in transfected cells; host or cells: COS-7", "T2 sequence (A0A287A2K5 whole entry)": "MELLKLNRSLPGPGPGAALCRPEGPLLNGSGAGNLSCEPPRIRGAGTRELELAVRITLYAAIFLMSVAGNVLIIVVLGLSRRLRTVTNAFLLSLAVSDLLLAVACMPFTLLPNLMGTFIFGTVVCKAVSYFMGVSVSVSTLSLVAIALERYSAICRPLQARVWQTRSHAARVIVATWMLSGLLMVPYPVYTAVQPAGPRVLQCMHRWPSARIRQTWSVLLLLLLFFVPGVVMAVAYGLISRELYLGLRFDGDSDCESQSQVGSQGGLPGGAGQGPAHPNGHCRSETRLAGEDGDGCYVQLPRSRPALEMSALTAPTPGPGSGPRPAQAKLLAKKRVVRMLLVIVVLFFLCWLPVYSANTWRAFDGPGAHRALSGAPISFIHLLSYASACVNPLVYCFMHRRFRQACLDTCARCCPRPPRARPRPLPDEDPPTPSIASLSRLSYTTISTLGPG", "test": "cell-based", "conditions": "pig CCK-2 receptor in COS-7 cells, IP-One, n = 3; highest dose tested 100 nM; read-out: Activation Mean EC50"}}, "data": [{"compound": "CC(C)N(C(=O)CN1C(=O)[C@H](NC(=O)Nc2cccc(C(=O)O)c2)C(=O)N(c2ccccc2)c2ccccc21)c1ccccc1", "note": "[GI181771X]", "values": [{"measurement": "Weight loss", "setting": "[1]", "value": "failed to induce weight loss"}]}, {"compound": "Cholecystokinin [CCK]", "values": [{"measurement": "Circulating half-life", "setting": "[2]", "value": "< 5", "unit": "min"}]}, {"compound": "CSCC[C@H](NC(=O)[C@H](Cc1ccc(OS(=O)(=O)O)cc1)NC(=O)[C@@H](N)CC(=O)O)C(=O)NCC(=O)N[C@@H](Cc1c[nH]c2ccccc12)C(=O)N[C@@H](CCSC)C(=O)N[C@@H](CC(=O)O)C(=O)N[C@@H](Cc1ccccc1)C(N)=O", "note": "[CCK-8]", "values": [{"measurement": "IC50", "setting": "[3]", "value": 0.199, "unit": "nM"}, {"measurement": "EC50", "setting": "[4]", "value": 0.221, "unit": "nM"}, {"measurement": "EC50", "setting": "[5]", "value": 0.325, "unit": "nM"}]}]}
